Results published in article PMC12040169 (PLOS Biology, 2025).

Experiment: in vitro
Settings: human, hela cells, % viability

| SMILES | viability at 28.5 h, 10 µM | viability at 28.5 h, 10 µM (bulk resorufin, single well) |
| --- | --- | --- |
| O=C(O)/C=C/c1cccc(-c2cnc(N3CCOCC3)c3nccn23)c1 [CBK091263] | 104% |  |
| OCc1ccccc1-c1cnc(N2CCOCC2)c2nccn12 [CBK091265] | 110% |  |
| c1cc(-c2cnc(N3CCOCC3)c3nccn23)c2cccnc2c1 [CBK091270] | 93.6% |  |
| COc1ccc(-c2cnc(N3CCOCC3)c3nccn23)cc1 [CBK091285] | 87.2% |  |
| c1cn2c(-c3ccoc3)cnc(N3CCOCC3)c2n1 [CBK091292] | 88.7% |  |
| CC(=O)NCCCCCC(=O)N1CCN(c2ccc(C(F)(F)F)cc2)CC1 [CBK091312] | 92.8% |  |
| COc1ccccc1C1OC(=O)CC1C(=O)N1CCN(c2ccc(C(F)(F)F)cc2)CC1 (stereo not shown) [CBK091313] | 111% |  |
| Cc1ccc(S(=O)(=O)NCC(=O)N2CCN(c3ccc(Cl)cc3)CC2)cc1 [CBK091315] | 93.3% |  |
| COc1ccccc1C1OC(=O)CC1C(=O)N1CCC(C(C)=O)(c2ccccc2)CC1 (stereo not shown) [CBK091324] |  | 104% |
| CC(=O)C1(c2ccccc2)CCN(C(=O)CNS(=O)(=O)c2ccc(C)cc2)CC1 [CBK091328] |  | 92.5% |
| COc1ccccc1C1OC(=O)CC1C(=O)N1CCN(c2ccc(Cl)cc2)CC1 (stereo not shown) [CBK091332] | 86.2% |  |
| CC(=O)N[C@H](Cc1c[nH]c2ccccc12)C(=O)N1CCN(c2ccc(C)cc2)CC1 [CBK091333] | 91.1% |  |
| CCC(C)(C)C(=O)Nc1ccc(Cl)nc1 [CBK091334] | 96.4% |  |
| O=C(Nc1ccc(Cl)nc1)C(F)(F)F [CBK091339] | 101% |  |
| Cc1ccccc1C(=O)NCC(=O)Nc1ccc(Br)c2ccccc12 [CBK091343] | 98% |  |
| O=C(CC1CCCCC1)Nc1ccc(Cl)nc1 [CBK091349] | 83.5% |  |
| COC(C)(C(=O)Nc1ccc(Cl)nc1)c1cccc2ccccc12 (stereo not shown) [CBK091350] | 102% |  |
| Cc1ccc(S(=O)(=O)NCC(=O)Nc2ccc(Cl)nc2)cc1 [CBK091355] | 96.1% |  |
| COc1ccc(C(N)C2(O)CCN(Cc3ccccc3)CC2)cc1 (stereo not shown) [CBK091386] | 107% |  |
| N#CC1(c2ccccc2)CCN(C(=O)c2ccc([N+](=O)[O-])o2)CC1 [CBK091389] |  | 95.7% |
| CC(=O)[C@H]1C[C@@H](CC(=O)N2CCC(C#N)(c3ccccc3)CC2)C1(C)C [CBK091393] |  | 91.5% |
| N#CC1(c2ccccc2)CCN(C(=O)CCC(F)(F)F)CC1 [CBK091399] |  | 97.7% |
| CC(C)(C)OC(=O)NCCCCC(=O)N1CCC(C#N)(c2ccccc2)CC1 [CBK091401] |  | 89.4% |

| SMILES | viability at 28.5 h, 10 µM | viability at 28.5 h, 10 µM (bulk resorufin, single well) |
| --- | --- | --- |
| CC1CC1C(=O)N1CCC(C#N)(c2ccccc2)CC1 (stereo not shown) [CBK091402] |  | 99% |
| COc1ccc(N2CCN(C(=O)CCC(=O)c3cccs3)CC2)cc1 [CBK091413] | 94.3% |  |
| CCCCC(CC)C(=O)N1CCN(c2ccc(OC)cc2)CC1 (stereo not shown) [CBK091414] | 99.9% |  |
| COc1ccc(N2CCN(C(=O)CCC(F)(F)F)CC2)cc1 [CBK091419] | 100% |  |
| CC(C)Nc1cncc(Sc2cccc(N)c2)n1 [CBK091434] | 108% |  |
| CC(C)Nc1cncc(Sc2ccccc2O)n1 [CBK091438] | 88% |  |
| COc1ccc(-c2ccc3c(c2)OC2(CCNCC2)O3)c(OC)c1 [CBK091451] |  | 93.2% |
| COc1ccccc1N1CCN(C(=O)CCC(=O)c2cccs2)CC1 [CBK091498] | 109% |  |
| COc1cc(C(=O)Nc2ccc3c(c2)COC2(CCNCC2)O3)cc(OC)c1OC [CBK091531T] |  | 92.3% |
| NC(=O)CN1CCCN(c2cc(OCCc3c[nH]c4ccccc34)ncn2)CC1 [CBK091546] | 96.6% |  |
| Clc1ccc(COc2ccnc(N3CCCNCC3)n2)cc1Cl [CBK091550] | 90% |  |
| O=C(c1ccccc1)c1ccc2[nH]nnc2c1 [CBK091608] | 94.2% |  |
| S=C(NCc1ccccc1)Nc1ccccc1 [CBK091617] | 105% |  |
| COc1ccc2[nH]c(SCC(=O)O)nc2c1 [CBK091620] | 91% |  |
| O=C1CC(c2cccs2)Sc2nc3ccccc3n21 (stereo not shown) [CBK091627] | 110% |  |
| COCCNC(=O)c1c(NC(=O)c2ccccc2C)sc2c1CCCC2 [CBK091645] | 83.9% |  |
| CC1=C(C(=O)OCC(C)C)C(c2ccc(C)cc2)N2C(=O)C(C)SC2=N1 (stereo not shown) [CBK091646] | 92.8% |  |
| CCCNc1nc(Cl)nc(NC(C)(C)C)n1 [CBK091674] | 86.3% |  |
| Cc1ccc(CNS(=O)(=O)N(C)C)cc1 [CBK091778] | 80.9% |  |
| O=C(c1cccc(C(=O)N(Cc2ccccc2)c2ccccn2)c1)N(Cc1ccccc1)c1ccccn1 [CBK091794] | 111% |  |
| CN(CC(=O)N1CCCCCC1)S(=O)(=O)c1cc(Cl)ccc1Cl [CBK091841] | 92.4% |  |
| COc1ccc(-c2cc(=O)[nH]c(SCC(=O)Nc3ccc(C)cc3)n2)cc1 [CBK091867] | 95.8% |  |
| CSc1nc2sc3c(c2c(=O)n1-c1ccccc1C)CC(C)(C)OC3 [CBK091875] | 99.1% |  |

| SMILES | viability at 28.5 h, 10 µM | viability at 28.5 h, 10 µM (bulk resorufin, single well) |
| --- | --- | --- |
| NC(=O)C1(N2CCCCC2)CCN(C(=S)NC2CCCC2)CC1 [CBK091884] | 88.1% |  |
| CCOC(=O)C1=C(C)N(CC)C(=O)NC1c1cc(OC)c(OC)c(OC)c1 (stereo not shown) [CBK091912] | 98.3% |  |
| CCOc1ccccc1N1CCN(C(=O)c2cc(-c3ccccc3C)nc3ccccc23)CC1 [CBK091950] | 104% |  |
| O=C(NC(=S)Nc1ccc(Br)cc1)c1ccccc1 [CBK092022] | 83.5% |  |
| O=C(NC(=S)Nc1ccccc1)c1cncc(Br)c1 [CBK092040] | 91.2% |  |
| CCOc1cccc(C(=O)NC(=S)Nc2nc(C)c(C(=O)OC)s2)c1 [CBK092056] | 93.6% |  |
| O=C(Nc1ccccc1Br)C1CCCC1 [CBK092059] | 111% |  |
| Cc1cc(C)nc(SCC(=O)c2ccc(F)cc2)n1 [CBK092116] | 82.1% |  |
| O=c1c2ccccc2[nH]c(=S)n1CCCN1CCOCC1 [CBK092141] | 88.1% |  |
| c1ccc(OCCCCN2CCCC23CCc2[nH]c4ccccc4c2C3)cc1 (stereo not shown) [CBK092200T] | 89.8% |  |
| CN(C)CC(=O)N1CN(C(=O)c2cccc(Br)c2)C(C)(C)C1 [CBK092206C] | 97.4% |  |
| COc1cc(OC)nc(Oc2ccccc2C(=O)O)n1 [CBK092218] | 84.6% |  |
| COC(=O)c1cccc(Oc2nc(OC)cc(OC)n2)c1 [CBK092219] | 66.1% |  |
| COC(=O)c1ccc(Oc2nc(OC)cc(OC)n2)cc1 [CBK092221] | 113% |  |
| CC1(C)OC(NC2CC3CCC2C3)=NC1=O (stereo not shown) [CBK092237] | 82.8% |  |
| CC[C@H]1CCCCN1C(=O)c1sc2ncccc2c1Cl [CBK092276] | 104% |  |
| Cc1cnc2c(N3CCCC3)nc(-c3cccnc3)cn12 [CBK092277] | 98.5% |  |
| COc1nn(C)c(CO)c1Cc1c(Cl)cccc1Cl [CBK092285T] | 94.2% |  |
| COc1cc(-c2ccc3c(c2)COC2(CCCNC2)O3)cc(OC)c1OC (stereo not shown) [CBK092299] | 93% |  |
| CCOC(=O)c1cnc(SC)nc1NCCc1c[nH]c2cc(F)ccc12 [CBK092315] | 96% |  |
| O=C(NCc1csc(-c2ccccc2)n1)c1ccccc1OC(F)F [CBK092332] | 95% |  |
| CC(=O)[C@H]1C[C@@H](CC(=O)NCc2csc(-c3ccccc3)n2)C1(C)C [CBK092335] | 109% |  |
| O=C(NCc1csc(-c2ccccc2)n1)C(F)(F)F [CBK092340] | 102% |  |

| SMILES | viability at 28.5 h, 10 µM | viability at 28.5 h, 10 µM (bulk resorufin, single well) |
| --- | --- | --- |
| O=C(CCC(F)(F)F)NCc1csc(-c2ccccc2)n1 [CBK092342] | 91% |  |
| O=C(NCc1csc(-c2ccccc2)n1)C1CC=CCC1 (stereo not shown) [CBK092348] | 94.4% |  |
| Cc1nc(-c2ccccc2)sc1CNC(=O)COc1ccc(F)cc1 [CBK092350] | 86.3% |  |
| Cc1nc(-c2ccccc2)sc1CNC(=O)c1ccc([N+](=O)[O-])o1 [CBK092352] | 54.8% |  |
| COc1ccc(CCCC(=O)NCc2sc(-c3ccccc3)nc2C)cc1OC [CBK092353] | 85.2% |  |
| COC(C(=O)NCc1sc(-c2ccccc2)nc1C)c1ccccc1 (stereo not shown) [CBK092362] | 93.1% |  |
| Cc1nc(-c2ccccc2)sc1CNC(=O)C(C)c1ccc([N+](=O)[O-])cc1 (stereo not shown) [CBK092364] | 98% |  |
| O=C1CSC2(C(=O)N(Cc3ccccc3)c3ccccc32)N1c1ccccc1 (stereo not shown) [CBK092391] | 100% |  |
| O=C1CSC2(C(=O)N(Cc3cccc(C(F)(F)F)c3)c3ccccc32)N1c1ccccc1 (stereo not shown) [CBK092392] | 108% |  |
| COc1ccc(N2C(=O)CSC23C(=O)N(Cc2ccc(Cl)cc2)c2ccccc23)cc1 (stereo not shown) [CBK092396] | 91.6% |  |
| COC(=O)c1ccc(CNc2nc(OC)cc(OC)n2)cc1 [CBK093391] | 95% |  |
| Nc1nn2c(c1Cc1c(Cl)cccc1Cl)OC(=O)CCC2=O [CBK093439] | 113% |  |
| COc1ccc(C(=O)N(CCC(C)C)Cc2nc(C)c(C)n2Cc2ccccc2Cl)c(OC)c1 [CBK093441] | 86.2% |  |
| Cc1ccc(N2C(=O)CSC23C(=O)Nc2ccc(Br)cc23)cc1 (stereo not shown) [CBK093453] | 84.4% |  |
| O=C1CSC2(C(=O)Nc3ccccc32)N1c1ccc2ccccc2c1 (stereo not shown) [CBK093461] | 106% |  |
| Cc1ccc(N2C(=O)CSC23C(=O)Nc2ccccc23)cc1Br (stereo not shown) [CBK093472] | 104% |  |
| O=C(NCc1ccccc1)c1ccc(N2C(=O)CSC23C(=O)Nc2ccccc23)cc1 (stereo not shown) [CBK093476] | 109% |  |
| O=C1CSC2(C(=O)Nc3ccccc32)N1c1cccc(F)c1 (stereo not shown) [CBK093488] | 99.2% |  |
| Clc1cncc(NCCc2c[nH]c3ccccc23)n1 [CBK093514] | 56.8% |  |
| Cc1ccc(S(=O)(=O)NCC2CCC(C(=O)Oc3ccc4ccc(=O)oc4c3)CC2)cc1 (stereo not shown) [CBK093519] | 87.9% |  |
| COC(=O)c1nn(Cc2ccc(OC)cc2)c2ccccc12 [CBK093526] |  | 31.4% |
| COc1ccc(Cn2nc(C(=O)O)c3ccccc32)cc1OC [CBK093529] |  | 93% |
